In article PMC13192270, “RhlR quorum-sensing receptor ligand sensitivity regulates the differential expression of phenazine genes in Pseudomonas aeruginosa” (Journal of Bacteriology, 2026):
Read-outs that look alike come from different tables or passages of the source.

Tests used:
Format in all cases: cell-based
WT RhlR in ΔrhlI strain = biological target: T1, WT RhlR in ΔrhlI strain (Pseudomonas aeruginosa, UniProt P54292); experiment: ChIP-seq of RhlR-binding sites; details: 2 µM C4HSL
T1 construct: Comparison of ChIP enrichment from the ΔrhlI and ΔrhlI RhlR T58L strains; endogenous in cells; host or cells: P. aeruginosa UCBPP-PA14 ΔrhlI
T1 sequence (P54292 1-241): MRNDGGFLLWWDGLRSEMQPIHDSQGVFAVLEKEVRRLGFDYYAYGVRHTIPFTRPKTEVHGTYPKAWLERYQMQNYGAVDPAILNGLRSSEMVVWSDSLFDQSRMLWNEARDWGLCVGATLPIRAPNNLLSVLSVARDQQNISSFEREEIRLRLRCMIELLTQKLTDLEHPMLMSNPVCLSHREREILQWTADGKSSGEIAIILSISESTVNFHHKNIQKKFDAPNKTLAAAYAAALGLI
Description: P. aeruginosa strains were grown overnight, back diluted 1:100 in fresh LB media, and grown to an OD600 = 2.0. Crosslinking, lysis, and immunoprecipitation were performed as previously described ([37]).

RhlR (L69M) = biological target: T2, RhlR (L69M) (Pseudomonas aeruginosa, UniProt P54292, L69M); experiment: E. coli prhlA-luxCDABE luciferase reporter assay
T2 construct: expressed in transfected cells; host or cells: E. coli carrying pBAD-A-rhlR mutant, pCS26-prhlA-luxCDABE and pACYC-pqsE or empty pACYC
Text: (§1) Previous analysis of the RhlR LBP focused on highly conserved residues that were known from other AHL-binding proteins to be important contacts for AHL molecules, particularly the lactone head group. We performed conservation analyses on 300 LuxR-type receptors to determine variable and moderately conserved residues in the LBP (Fig. 1B) and, in conjunction with our previously determined experimental structure of WT RhlR bound to the synthetic agonist mBTL, used for docking C4- and C6HSL. Based on our docking simulations, C4- and C6HSL occupy a similar position in the LBP as mBTL, a highly efficacious activator of RhlR (Fig. 1C; Fig. S1). We targeted residues A44, G46, T58, L69, Y72, D81, I84, W96, and W108 (Fig. 1B and C). These residues were selected because of their proximity to the acyl tail of C4HSL, as well as the differences in conservation that are observed at these sites. We used an E. coli luciferase reporter assay to monitor ligand-dependent activation of WT RhlR and RhlR variants. WT RhlR and RhlR variants were expressed under the control of an arabinose-inducible promoter (Fig. S2). Transcription was monitored by light production via the expression of the luxCDABE operon controlled by the RhlR-dependent promoter of rhlA. Binding of RhlR to the rhlA promoter is highly dependent on the C4HSL-RhlR interaction, based on ChIP-seq analyses performed in P. aeruginosa as well as previously published E. coli reporter systems ([34], [39]). After expressing WT RhlR and RhlR variants in the E. coli reporter system, we performed dose response assays using C4HSL to calculate the concentration of C4HSL required to activate the reporter system to 50% maximum levels (EC50 value; Table 1). As expected, transcription activation by WT RhlR increased with increased C4HSL levels, with an EC50 value of ~2 µM. We observed a range of responses. Figure 1C depicts the targeted residues, which are colored based on the effect of amino acid substitution.
(§2) RhlR requires the accessory-binding protein, PqsE, for maximal activity. To determine if PqsE expression altered the activation of RhlR variants, we assessed AHL-dependent RhlR activation of the prhlA-luxCDABE reporter in the presence of a third plasmid that constitutively expresses PqsE in E. coli. […] RhlR variants that were still active but with increased EC50 values for C4HSL could have their activity enhanced by PqsE. […] Thus, alterations to the LBP can diminish the additive effect of PqsE-dependent transcription, indicating a potential role of allosteric conformational changes dependent on ligand occupancy. […] RhlR variants at residues I84 and W108 could not be activated by C4HSL, and thus, light levels remained low at all concentrations that were tested. Unlike the aforementioned variants, RhlR I84M/W and RhlR W108F/Y were activated by the expression of PqsE (Fig. S4).
(§3) All E. coli strains in this study were grown overnight with shaking in 5 mL Luria-Bertani (LB) media supplemented with 100 µg/mL ampicillin, 50 µg/mL kanamycin, and 15 µg/mL tetracycline at 37°C overnight. Overnight cultures were diluted 1:100 into fresh media, grown at 37°C with shaking for 2 h until reaching OD600 = 0.4. Cultures were induced with a final concentration of 0.1% arabinose, and 198 μL of the induced culture was mixed with 2 μL of C4HSL dilutions in a clear-bottom, black-opaque 96-well plate (Corning) and grown at 37°C with shaking for 4 h. The C4HSL dilution series was performed 1:1 in dimethyl sulfoxide (DMSO) with a top final concentration of 10 μM. Luminescence and optical density were recorded using a Glomax (Promega) plate reader.

RhlR (G46W) = biological target: T3, RhlR (G46W) (Pseudomonas aeruginosa, UniProt P54292, G46W); experiment: E. coli prhlA-luxCDABE luciferase reporter assay; details: even at the highest dose of C4HSL tested
T3 construct: expressed in transfected cells; host or cells: E. coli carrying pBAD-A-rhlR mutant, pCS26-prhlA-luxCDABE and pACYC-pqsE or empty pACYC
Text: as §1, §2, §3

WT RhlR = biological target: T4, WT RhlR (Pseudomonas aeruginosa, UniProt P54292); experiment: E. coli prhlA-luxCDABE luciferase reporter assay
T4 construct: expressed in transfected cells; host or cells: E. coli carrying pBAD-A-rhlR, pCS26-prhlA-luxCDABE and pACYC-pqsE or empty pACYC
T4 sequence (P54292 1-241): T1 sequence (P54292 1-241)
Text: as §1, §2, §3

## CCCC(=O)N[C@H]1CCOC1=O [C4HSL, N-butyryl-L-homoserine lactone]
WT RhlR in ΔrhlI strain
  ChIP-seq enrichment at PA14_01490 (rahU) (peak 139,733): 1,797.7
  ChIP-seq enrichment at PA14_06320 (peak 560,072): 1,705.2
  ChIP-seq enrichment at PA14_10360 (peak 895,433): 1,134.9
  ChIP-seq enrichment at PA14_16100*, PA14_16110 (peak 1,372,370): 1,180.9
  ChIP-seq enrichment at PA14_18800 (peak 1,620,628): 664.1
  ChIP-seq enrichment at PA14_18810 operon (peak 1,621,028): 127.1
  ChIP-seq enrichment at PA14_20130, PA14_20140 (fpr) (peak 1,735,823): 258.2
  ChIP-seq enrichment at PA14_21020 (azeB) operon, PA14_21030 (peak 1,816,906): 4,251.6
  ChIP-seq enrichment at PA14_22090 (peak 1,921,598): 402.5
  ChIP-seq enrichment at PA14_28250*, PA14_28260 (peak 2,444,398): 126.8
  ChIP-seq enrichment at PA14_29620, fhp operon (peak 2,568,048): 2,516.7
  ChIP-seq enrichment at PA14_30570, PA14_30580 (vqsR) (peak 2,647,472): 770.7
  ChIP-seq enrichment at PA14_30840* (peak 2,677,542): 7,49.74
  ChIP-seq enrichment at PA14_37745 operon (peak 3,364,761): 408.8
  ChIP-seq enrichment at PA14_48140 operon (peak 4,285,523): 311.1
  ChIP-seq enrichment at PA14_48530 operon (peak 4,313,855): 838.3
  ChIP-seq enrichment at PA14_49310 (peak 4,382,169): 1,250.8
  ChIP-seq enrichment at PA14_49740, PA14_49750 operon (peak 4,425,570): 1,588.8
  ChIP-seq enrichment at PA14_57970*, PA14_57980 (peak 5,159,548): 826
  ChIP-seq enrichment at PA14_59180* (peak 5,268,881): 381.4
  ChIP-seq enrichment at PA_48530* (peak 4,314,560): 258.8
  ChIP-seq enrichment at arcD operon (peak 6,093,032): 1,302.3
  ChIP-seq enrichment at hcnA operon, exoY (peak 3,236,436): 2,43.83
  ChIP-seq enrichment at hsiA2 operon, hcpD (peak 3,831,541): 1,370.2
  ChIP-seq enrichment at lasA (peak 3,600,666): 239.4
  ChIP-seq enrichment at lasB (peak 1,387,361): 597.9
  ChIP-seq enrichment at lecB, PA14_20620 operon (peak 1,774,336): 16,502.8
  ChIP-seq enrichment at pa1L (peak 2,721,761): 204.8
  ChIP-seq enrichment at peak 5,414,219: 519
  ChIP-seq enrichment at phzA1 operon, phzM (peak 813,529): 5,438.8
  ChIP-seq enrichment at phzA2 operon (peak 3,561,969): 575.2
  ChIP-seq enrichment at phzB1*, phzC1 (peak 812,427): 1,614.1
  ChIP-seq enrichment at phzB2*, phzC2 (peak 3,561,157): 214.5
  ChIP-seq enrichment at phzH (peak 64,211): 1,937.1
  ChIP-seq enrichment at rhlA operon (peak 1,648,391): 4,107.6
  ChIP-seq enrichment at rhlI (peak 1,651,804): 562.1
  ChIP-seq enrichment at rmlB operon (peak 6,082,366): 2,46.6
  ChIP-seq enrichment at rpsL operon (peak 754,615): 580.9
  ChIP-seq enrichment at tnpS, tnpT operon (peak 3,188,223): 365.2
RhlR (L69M); Vector (no pqsE)
  EC50: 13800 nM
RhlR (L69M); pqsE co-expressed
  EC50: 1720 nM
RhlR (G46W)
  activation by C4HSL in the reporter system: not activated
WT RhlR; Vector (no pqsE), read-out: EC50
  EC50: 2420 nM
WT RhlR; pqsE co-expressed, read-out: EC50
  EC50: 534 nM
WT RhlR; statement in discussion
  C4HSL required for QS activation: > 1 µM
WT RhlR; without PqsE, read-out: EC50 value
  EC50: ~2000 nM
